Assay results as given in US20110218515A1, “Methods for Treating Acute Myocardial Infarctions and Associated Disorders” (The Regents of the University of California, priority 2009, published 2011).
“And” between values parts separate entries of the source, which are not always exact repeats. Equal values may be shown once. “Also recorded” adds a separate entry of the source.

How the values were obtained:
[1] = test system: ischemia-reperfusion rat model; assay: Serial echocardiography in ischemia-reperfusion MI rats; type: in vivo, Sprague-Dawley rats; settings: for LV ejection fraction at 5 weeks: 5 weeks post-MI, after four weeks feed with 1.2% pirfenidone
Protocol: In this example, a protocol is described for examining the ventricular function, extent of fibrosis and VT inducibility in an ischemia-reperfusion rat model after pirfenidone treatment. Ventricular function was assessed via echocardiography. VT inducibility was assessed by programmed stimulation and EP study. The electrophysiological properties were assessed using high-resolution optical mapping, and the extent of fibrosis was studied using standard histological techniques.
After baseline echocardiography, thirty male Sprague-Dawley rats, ages 6-10 weeks, underwent myocardial infarction using an ischemia-reperfusion model. Briefly, rats were anesthetized using inhaled isoflurane (5% induction, 2.5% maintenance, O2 output 1 L/min) and positioned supine on an electrically warmed animal surgery platform. Rats were intubated using a 16-gauge i.v. catheter and then ventilated using a Harvard rodent respirator. After a left thoracotomy and pericardiotomy were performed, a 7-0 Ticron suture was introduced into the myocardium, using the left atrial appendage and right outflow tract as landmarks. The depth of entry was 2 mm, which was slightly greater than the level of the left coronary artery. Both suture ends were then threaded through a PE-90 polyethylene tube 6 in. in length to form a “snare loop” around the artery, closed by pulling on the free ends of the suture. […] The suture was then tightened to occlude the artery for 20 minutes and then removed to allow for reperfusion. The chest was then closed with 5-0 prolene suture, and the animal was allowed to recover. After one week and repeat echocardiography, rats were randomized to placebo rodent feed (control group, n=15) or rodent feed mixed with 1.2% pirfenidone (PFD) (treatment group, n=15) for four weeks. All experiments and data analyses were performed with the operator blinded to treatment group.
At baseline, and at 1 wk and 5 wk after infarction, a commercially available high-resolution echocardiographic system (Vevo 660, VisualSonics, Toronto, ON, Canada) equipped with a 25-MHz mechanical transducer was used for echocardiography. Rats were placed supine on a warming platform, and ECG limb electrodes were attached. To minimize ultrasound attenuation, the chests were shaved and cleaned with a chemical hair remover (Nair). Aquasonic 100 gel (Parker Laboratories, Fairfield, N.J.) was applied to the thoracic surface to optimize visibility of the cardiac chambers. Parasternal long-axis and parasternal short-axis two-dimensional views were acquired.
Using the long-axis view, left ventricular (LV) end-systolic and end-diastolic volumes (ESV and EDV), as well as LV ejection fraction (LVEF), were calculated by using frames with the maximal and minimal cross-sectional area and width. The system software utilizes a formula based on a cylindrical-hemiellipsoid model (volume=8*area2÷3÷length). LVEF was calculated using the following formula: (EDV−ESV)/EDV*100. Fractional shortening (FS) was evaluated from the M mode of the parasternal long-axis view at the papillary muscle level on the basis of the percent changes of LV end-diastolic and end-systolic diameters. LV mass was estimated using the following equation at end diastole: LV mass=1.05*(epicardial volume−endocardial volume), where volume is based on the cylindrical-hemiellipsoid model. These evaluations of LV function in the rodent are well validated. Echocardiographic acquisition and analysis were obtained while blinded to the treatment group.

[2] = test system: TNF-α, TGF-β1, bFGF, PDGF, and EGF; settings: literature report; cited from earlier work
[3] = test system: congestive heart failure dogs, coronary perfused left ventricular preparation; assay: Ventricular fibrillation optical mapping, activation patterns, pacing-induced heart failure dogs; type: in vivo
Text: Animal Models: Twenty-four dogs weighing 25-30 Kg were divided into three groups: control (n=11), congestive heart failure (n=7), and congestive heart failure with the antifibrotic drug pirfenidone (n=6). Heart Failure (CHF) was induced in 7 dogs via four weeks of rapid ventricular pacing via a lead placed in the RV and pulse generator set to pace at 240 bpm followed by ablation of the AV node to create complete heart block, as described in Li, et al., Circulation 1999; 100:87-95. Ventricular function was monitored weekly with transthoracic echocardiography for 4 weeks. At 4 weeks, the optical mapping study was performed.
Heart Failure with Pirfenidone (PFD): Heart failure was induced in 6 dogs as described above and PFD was administered as described in Lee et al., Circulation 2006; 114; 1703-12. Oral PFD (800 mg 3 times per day; InterMune, Brisbane, Calif.) was started 2 days before the initiation of pacing and was discontinued >6 half-lives (24 hours) before the optical mapping study.
Optical Mapping Studies: A coronary perfused left ventricular preparation was used as described in Wu et al., J Cardiovasc Electrophysiol 1998; 9:1336-47. Briefly, following sedation with sodium pentothal (0.25 mg/Kg), a left lateral thoracotomy is performed and the heart was rapidly excised. It was then perfused with cardioplegic solution ((in mmol/L): NaCl 123, KCl 15, NaHCO3 22, NaH2PO4 0.65, MgCl2 0.50, glucose 5.5, CaCl2 2, bubbled with 95% O2/5% CO2) retrogradely through the aorta. The ventricles were removed at approximately 1 cm below the AV ring and the left anterior descending coronary artery (LAD) was perfused. The right ventricle was removed and the left ventricle was cut to the size that was perfused by the LAD and included a papillary muscle. All ventricular branches were then ligated.
The ventricular preparation was then transferred to a tissue chamber maintained at 37° C. The perfusion line in the LAD was perfused with modified Tyrode's solution ((in mmol/L): NaCl 123, KCl 5.4, NaHCO3 22, NaH2PO4 0.65, MgCl2 0.50, glucose 5.5, CaCl2 2, bubbled with 95% O2/5% CO2). Prior to optical recordings, a bolus of 30-40 μl of the voltage sensitive dye PGH-1 was injected directly into the perfusate.
With an optical mapping system described in Wu et al., J Cardiovasc Electrophysiol 1998; 9:1336-47, optical recordings were then made from 4-cm^2 area on 3 surfaces of the preparation (epicardial, endocardial (including the papillary muscle, and transmural) by a 16×16 photodiode array (C4657 Hamamatsu, Bridgewater, N.J.) that recorded 256 simultaneous optical action potentials. During optical recordings from a preparation, contractility was blocked with 15 mM 2,3-butadione monoxime (BDM; Sigma-Aldrich)11. Plunge electrodes were placed on the recording surface around the field of view for both pacing and monitoring. Two plunge electrodes were dedicated for recording a bipolar signal for monitoring the electrical activity of the preparation. VF was initiated with either extra stimuli or with rapid burst pacing at a cycle length of 50 ms, a pulse width of 9.9 ms, and an output of 9.9 mA. Several 4-s episodes of VF were recorded on each surface in each preparation. Activation movies of the VF were then viewed, and the activation patterns were determined. […] Activation patterns and wave-front direction during VF were determined from raw fluorescence movies (isopotential). […]

[4] = CHF dogs, oral PFD 800 mg 3 times per day, one line per dog, listed as PFD

Cc1ccc(=O)n(-c2ccccc2)c1 [pirfenidone]
LV ejection fraction at 1 week ([1]; 1 week post-MI, at randomization before treatment): 54% | LV ejection fraction at 5 weeks [1]: 45% | LV ejection fraction at 5 weeks ([1]; listed as PFD): 36±15% | LV ejection fraction, starting value of the decline ([1]; baseline echocardiography, before treatment): 66±5% | percent decrease in ejection fraction from week 1 to week 5 ([1]; treatment period, feed with 1.2% pirfenidone, controls 24.3%, p=0.005): 8.6% and 8% | biosynthesis or release of various cytokines such as TNF-α, TGF-β1, bFGF, PDGF, and EGF [2]: inhibit excessive biosynthesis or release | collagen expression [2]: decrease collagen expression | mapped epicardial surfaces having either focal activation or a spiral wave ([3]; CHF dogs with PFD): 2/6 | mapped transmural surfaces with spiral wave activation pattern correlated to stable high DF areas ([3]; CHF dogs with PFD): 50% | VF Activation Patterns, Endocardial [3, 4]: either multiple or broad wavefront activation; also recorded: multiple wave; also recorded: broad wavefront | VF Activation Patterns, Epicardial [3, 4]: multiple wave; also recorded: focal | VF Activation Patterns, Transmural [3, 4]: spiral wave; also recorded: multiple wave
